# Measurements: article PMC9820559, “Investigation of the Fuzzy Complex between RSV Nucleoprotein and Phosphoprotein to Optimize an Inhibition Assay by Fluorescence Polarization” (International Journal of Molecular Sciences, 2022)
# Where “and” joins values, the source holds several entries; their conditions need not be identical. Equal values may be shown once. Read-outs that look alike come from different tables or passages of the source. Peptide text beside a SMILES is read from it. * marks the point of attachment. FITC = O=C1OC2(c3ccc(O)cc3Oc3cc(O)ccc32)c2ccc(NC(=S)*)cc21
# Assays:
# RSV N-RNA complex [1] = target: T1, RSV N-RNA complex (Human respiratory syncytial virus A, UniProt P03418); assay: biochemical; format: binding; conditions: Kd, Fn peptides 200 nM, Tris pH 8.0 without salt; single site binding model
# T1 construct: Full-length N was produced by co-expression with the C-terminal domain of RSV P protein in E. coli BL21(DE3); made in house; host or cells: E. coli BL21(DE3), co-transformed with pET-N and pGEX-P(161–241)
# Experimental: We carried out FP measurements using the fluorescent F11 peptide and N-RNA complex. […] No salt was added to promote high affinity.
# We first measured binding of Fn peptides (200 nM) to N-RNA in Tris buffer by FP (Figure 5A,B). […] We fitted the data with ΔFPmax and Kd as parameters.
# We therefore measured fluorescein FP in the presence of N-RNA. […] To test if fluorescein binds to the P-binding site on the N-RNA, we carried out a competition experiment with M76 (Figure 6C).
# We first performed FP measurements in salt-free Tris pH 8 buffer (Figure 8A). We measured binding curves using 200 nM of fluorescent peptides.
# (§1) Fluorescence polarization measurements were carried out on a Paradigm Detection Platform (Beckman Coulter, Brea, CA, USA) operating with a microplate reader, a fluorescein detection cartridge (excitation range 485/20 nm, emission range 535/25 nm for both parallel and perpendicular components) and the SpectraMax Pro 6.1 software (Molecular Devices, San Jose, CA, USA). Samples were placed in polystyrene black flat bottom 96-well microplates (Cellstar, Greiner bio-one, Frickenhausen, Germany) with 20 µL final volume in each well. If not stated otherwise, the final concentration of fluorescent ligands was 200 nM. The buffer was either 20 mM MES pH 6.5, salt-free or with 250 mM NaCl, or 20 mM Tris pH 8.0 salt-free or with 100 mM NaCl, supplemented with 0.01% Brij-35. Mixing was done using the corresponding plate reader option. The temperature was set to 20 °C. Data were recorded in top reading mode. Measurements were done in triplicate and after an incubation time of 30 min, if not indicated otherwise. Fluorescence polarization (FP) in mFP units was determined from the parallel (I∥) and perpendicular (I⊥) components of the emitted light according to Equation (4). A grating factor G of 1.2 was determined using 1 nM fluorescein in 1 mM NaOH and assuming a theoretical FP of 27 mFP [48]. Background signal was measured from wells containing only buffer, and the mean value was subtracted from each I∥ and I⊥ component. (4) FP (mP)=1000×(I∥−G∗I⊥)/(I∥+G×I⊥)
# We assumed that the measured fluorescence polarization FP is a linear combination of the FP of the fluorescent probe in the absence of N protein (FPmin) and the FP of N-bound fluorescent probe (FPmax), weighted by the molar fraction. The molar fraction x = [P]bound/[P]0 can then be expressed as a ratio of FP differences (Equation (8)). (8) x=(FP−FPmin)/(FPmax−FPmin)=∆FP/∆FPmax
# To determine the Kd value of a complex between a fluorescent probe and N protein, a series of samples with constant probe concentration and varying N concentration was measured. FP binding curves were fitted with a single binding site model and a 1:1 stoichiometry.
# [2] = Chemical stability of fluorescently labeled P peptides; format: physicochemical; conditions: slightly acidic conditions / HPLC purification and FP assay conditions
# Experimental: We started by labeling the pP11 peptide with N-terminally attached BODIPY FL, as described by Shapiro at al.. […] We then produced F11, another labelled peptide P11, by changing the fluorescent label to fluorescein-5-thiourea (FTU) by coupling with fluorescein-5-isothiocyanate (FITC). […] To directly compare FP and NMR data, we made measurements in MES pH 6.5 buffer. Brij-35 detergent (0.01% w/v) was added below its critical micellar concentration (0.11% w/v) to prevent spurious binding of the peptide to the reading plates. […] We tested buffer with and without salt.
# Such derivatives were recently described as tags for bioconjugation, but, to our knowledge, not for an FP assay. […] To assess the properties of BODIPY FL as a fluorescent label for P peptides, we produced a new series of eight dicyano BODIPY FL-labeled (BCNn) peptides of variable length (Table 4) and tested them for N-RNA binding.
# RSV NNTD = target: T2, RSV NNTD (Human respiratory syncytial virus A, UniProt P03418); assay: Fluorescence polarization inhibition of NNTD binding to F11
# T2 construct: The N-terminal domain NNTD (residues 31–252), containing a C-terminal 6x histidine tag; 6xHis (C); made in house; host or cells: E. coli BL21(DE3)
# Experimental: We therefore tested competition between M76 and F11 by FP. Measurements were done in salt-free buffer to take advantage of the higher F11-NNTD affinity. The concentration of NNTD was set to 5 µM to benefit from a high range of FP values, comprised between FPmin and ~80% FPmax. […] We fitted the data with a Hill equation (Equation (12)), assuming that the maximal inhibition of F11 binding to the canonical site by M76 was obtained at saturation.
# Fluorescence polarization measurements were carried out on a Paradigm Detection Platform (Beckman Coulter, Brea, CA, USA) operating with a microplate reader, a fluorescein detection cartridge (excitation range 485/20 nm, emission range 535/25 nm for both parallel and perpendicular components) and the SpectraMax Pro 6.1 software (Molecular Devices, San Jose, CA, USA). […] Mixing was done using the corresponding plate reader option. […] Data were recorded in top reading mode. […] Fluorescence polarization (FP) in mFP units was determined from the parallel (I∥) and perpendicular (I⊥) components of the emitted light according to Equation (4). A grating factor G of 1.2 was determined using 1 nM fluorescein in 1 mM NaOH and assuming a theoretical FP of 27 mFP [48]. Background signal was measured from wells containing only buffer, and the mean value was subtracted from each I∥ and I⊥ component. […]
# RSV N-RNA complex [3] = target: T1, RSV N-RNA complex; assay: Fluorescence polarization inhibition of N-RNA binding to fluorescent probes
# Description: We next performed inhibition experiments for the F11-(N-RNA) complex by M76 (Figure 4B). FP values decreased with increasing competitor concentration. At saturation, FP nearly reached the value of free F11, showing that the F11 peptide could be nearly completely displaced. Since the same concentration range was used for NNTD and N-RNA, poor solubility of M76 can be ruled out to explain the saturation observed before complete displacement of F11 in the presence NNTD (Figure 3C). This reinforces the hypothesis of a second binding site on NNTD, outside the canonical P-binding site. […]
# To probe the potency of M76 as an inhibitor, we carried out competition experiments with the M76 molecule and several BCNn peptides. M76 was able to displace the fluorescent probes from N-RNA, and inhibition curves were obtained (Figure 8E). Since we used different N concentrations to have similar dynamic ranges of FP for the series of fluorescent peptides, we cannot directly compare M76 IC50s. However, Kis may be compared.
# as §1
# To assess inhibition of a complex between a fluorescent probe and N protein by peptides or the M76 molecule, the concentration of N was set to work with an FP range comprised between FPmin and ~80% FPmax. Peptides were added from 1 or 2 mM stock solution in water at neutral pH. M76 was added from 10 or 20 mM stock solutions in ethanol or in DMSO. […] Inhibition data were fitted with Origin 7, and in parallel with the Excel solver module. All data were compatible with an absence of cooperativity. FPmax and FPmin were fitted, and the maximal inhibition %i,max was set to 100%. (11) %i=100×[1−(FP−FPmin)/(FPmax−FPmin)] (12) %i=%i,max×[inhibitor]/[inhibitor]+IC50
# Inhibition constants Ki were calculated on the IC50-to-Ki converter for a protein-ligand-inhibitor system (https://bioinfo-abcc.ncifcrf.gov/IC50_Ki_Converter/index.php, accessed on 24 August 2022), assuming a competitive mechanism (Equation (13)). This tool takes into account the free concentrations of protein and ligand. (13) Ki=(IC50−[protein]/2)/([peptide]/Kd+1)
# T1 sequence (P03418 whole entry, looked up, the tested form may be a part, one chain of several): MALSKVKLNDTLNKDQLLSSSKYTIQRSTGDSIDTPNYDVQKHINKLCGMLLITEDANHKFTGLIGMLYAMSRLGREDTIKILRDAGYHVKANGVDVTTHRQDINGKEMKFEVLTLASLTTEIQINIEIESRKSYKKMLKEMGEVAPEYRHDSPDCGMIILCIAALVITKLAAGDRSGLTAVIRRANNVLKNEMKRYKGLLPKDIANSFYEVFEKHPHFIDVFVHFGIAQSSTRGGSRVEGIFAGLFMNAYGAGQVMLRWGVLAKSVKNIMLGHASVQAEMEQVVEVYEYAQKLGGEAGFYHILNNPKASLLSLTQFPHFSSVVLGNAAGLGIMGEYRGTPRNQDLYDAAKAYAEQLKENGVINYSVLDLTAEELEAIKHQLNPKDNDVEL
# T2 sequence (P03418 31-252): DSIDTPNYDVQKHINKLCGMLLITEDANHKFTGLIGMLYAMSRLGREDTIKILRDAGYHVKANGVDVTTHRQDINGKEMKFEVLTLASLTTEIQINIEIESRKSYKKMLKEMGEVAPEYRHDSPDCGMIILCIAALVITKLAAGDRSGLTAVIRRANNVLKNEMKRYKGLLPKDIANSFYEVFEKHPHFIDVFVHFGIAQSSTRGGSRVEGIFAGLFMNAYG
smiles,measurement,setting,value
"CC(C)C[C@H](NC(=O)[C@H](CO)NC(=O)[C@H](CC(C)C)NC(=O)[C@H](CC(=O)O)NC(=O)[C@H](CC(N)=O)NC(=O)[C@H](CC(=O)O)NC(=O)[C@H](CO)NC(=O)[C@H](CC(=O)O)NC(=S)Nc1ccc2c(c1)C(=O)OC21c2ccc(O)cc2Oc2cc(O)ccc21)C(=O)N[C@@H](CCC(=O)O)C(=O)N[C@@H](CC(=O)O)C(=O)N[C@@H](Cc1ccccc1)C(=O)O [F11, ϕ-DS232DNDLS237LEDF-OH] ({FITC}-DSDNDLSLEDF-OH)",Kd,RSV N-RNA complex [1],7.6 ± 0.9 µM
same,chemical stability,[2],stable
"O=C(O)c1cc(C(=O)O)n(Cc2ccc(Cl)cc2Cl)n1 [M76, 1-(2,4-dichlorobenzyl)-1H-pyrazole-3,5-dicarboxylic acid]",IC50,RSV NNTD,28 ± 5 µM
same,Ki,RSV NNTD,2.5 µM
same,IC50,"RSV N-RNA complex [3]; fluorescent probe F7E 200 nM, 10 µM N-RNA, Tris pH 8 without salt, read-out: IC50",48 ± 5 µM
same,Ki,"RSV N-RNA complex [3]; fluorescent probe F7E 200 nM, 10 µM N-RNA, from IC50 and Kd 2.5 µM, read-out: Ki",8 µM
same,IC50,"RSV N-RNA complex [3]; fluorescent probe F11 200 nM, 10 µM N-RNA, Tris pH 8 without salt, read-out: IC50",12.6 µM and 13 µM
same,Ki,"RSV N-RNA complex [3]; fluorescent probe F11 200 nM, 10 µM N-RNA, from IC50 and Kd 7.6 µM with IC50-to-Ki server, read-out: Ki",3 µM
same,IC50,"RSV N-RNA complex [3]; fluorescent probe fluorescein 1 200 nM, 20 µM N-RNA, read-out: M76 IC50",27 ± 2 µM
same,Ki,"RSV N-RNA complex [3]; fluorescent probe fluorescein 1, 20 µM N-RNA, from IC50 and Kd, read-out: M76 Ki",13 µM
same,IC50,"RSV N-RNA complex [3]; fluorescent probe fluorescein ethyl ester 3 200 nM, 20 µM N-RNA, read-out: M76 IC50",65 ± 9 µM
same,Ki,"RSV N-RNA complex [3]; fluorescent probe fluorescein ethyl ester 3, 20 µM N-RNA, from IC50 and Kd, read-out: M76 Ki",50 µM
same,IC50,"RSV N-RNA complex [3]; fluorescent probe fluorescein methyl ester 2 200 nM, 20 µM N-RNA, read-out: M76 IC50",46 ± 7 µM
same,Ki,"RSV N-RNA complex [3]; fluorescent probe fluorescein methyl ester 2, 20 µM N-RNA, from IC50 and Kd, read-out: M76 Ki",32 µM
same,IC50,"RSV N-RNA complex [3]; probe BCN5E 200 nM, [N-RNA] 2 µM, Tris pH 8, read-out: Fitted IC50",7 ± 0.6 µM
same,IC50,"RSV N-RNA complex [3]; probe BCN5E 200 nM, [N-RNA] 20 µM, Tris pH 8, read-out: Fitted IC50",26 ± 2 µM
same,Ki,"RSV N-RNA complex [3]; probe BCN5E, [N-RNA] 2 µM, IC50-to-Ki server, read-out: Ki",4.8 µM
same,Ki,"RSV N-RNA complex [3]; probe BCN5E, [N-RNA] 20 µM, IC50-to-Ki server, read-out: Ki",3.6 µM
same,Ki,"RSV N-RNA complex [3]; probe BCN5E, [N-RNA] 2 and 20 µM, read-out: Ki values for inhibition of BCN5E",3.6 to 4.8 µM
same,IC50,"RSV N-RNA complex [3]; probe BCN6E 200 nM, [N-RNA] 2 µM, Tris pH 8, read-out: Fitted IC50",2.7 ± 0.2 µM
same,IC50,"RSV N-RNA complex [3]; probe BCN6E 200 nM, [N-RNA] 10 µM, Tris pH 8, read-out: Fitted IC50",14 ± 1 µM
same,Ki,"RSV N-RNA complex [3]; probe BCN6E, [N-RNA] 2 µM, IC50-to-Ki server, read-out: Ki",0.7 µM
same,Ki,"RSV N-RNA complex [3]; probe BCN6E, [N-RNA] 10 µM, IC50-to-Ki server, read-out: Ki",1.1 µM
same,IC50,"RSV N-RNA complex [3]; probe BCN8E 200 nM, [N-RNA] 2 µM, Tris pH 8, read-out: Fitted IC50",4.5 ± 0.4 µM
same,IC50,"RSV N-RNA complex [3]; probe BCN8E 200 nM, [N-RNA] 5 µM, Tris pH 8, read-out: Fitted IC50",13 ± 2 µM
same,Ki,"RSV N-RNA complex [3]; probe BCN8E, [N-RNA] 2 µM, IC50-to-Ki server, read-out: Ki",1.3 µM
same,Ki,"RSV N-RNA complex [3]; probe BCN8E, [N-RNA] 5 µM, IC50-to-Ki server, read-out: Ki",2 µM
same,IC50,"RSV N-RNA complex [3]; probe BCN10EE 200 nM, [N-RNA] 2 µM, Tris pH 8, read-out: Fitted IC50",8.9 ± 0.6 µM
same,IC50,"RSV N-RNA complex [3]; probe BCN10EE 200 nM, inhibitor M76, [N-RNA] 1 µM, Tris pH 8, read-out: Fitted IC50",8.5 ± 0.6 µM
same,Ki,"RSV N-RNA complex [3]; probe BCN10EE, [N-RNA] 2 µM, IC50-to-Ki server, read-out: Ki",0.5 µM
same,Ki,"RSV N-RNA complex [3]; probe BCN10EE, inhibitor M76, [N-RNA] 1 µM, IC50-to-Ki server, read-out: Ki",1.1 µM
same,IC50,"RSV N-RNA complex [3]; probe BCN11SE 200 nM, [N-RNA] 5 µM, Tris pH 8, read-out: Fitted IC50",17 ± 2 µM
same,Ki,"RSV N-RNA complex [3]; probe BCN11SE, [N-RNA] 5 µM, IC50-to-Ki server, read-out: Ki",1.8 µM
